The source made the active and inactive calls.
Experiments:
Escherichia coli = experiment: microbe, parasite or virus in culture
Hexokinase-1 = Hexokinase-1 (Homo sapiens, UniProt P19367); experiment: HK1 enzyme inhibition by HKDC1 hits, SAR follow-up, selectivity assay for HKDC1 inhibitor project, biochemical, set 2, resazurin fluorescence coupled readout (AID 588356); assay type: functional
Hexokinase HKDC1 = molecular target: T1, Hexokinase HKDC1 (Homo sapiens, UniProt Q2TB90); experiment: HKDC1 hexokinase inhibitors, SAR follow-up, biochemical, set 2 (AID 588355); assay type: functional
T1 sequence (Q2TB90 whole entry): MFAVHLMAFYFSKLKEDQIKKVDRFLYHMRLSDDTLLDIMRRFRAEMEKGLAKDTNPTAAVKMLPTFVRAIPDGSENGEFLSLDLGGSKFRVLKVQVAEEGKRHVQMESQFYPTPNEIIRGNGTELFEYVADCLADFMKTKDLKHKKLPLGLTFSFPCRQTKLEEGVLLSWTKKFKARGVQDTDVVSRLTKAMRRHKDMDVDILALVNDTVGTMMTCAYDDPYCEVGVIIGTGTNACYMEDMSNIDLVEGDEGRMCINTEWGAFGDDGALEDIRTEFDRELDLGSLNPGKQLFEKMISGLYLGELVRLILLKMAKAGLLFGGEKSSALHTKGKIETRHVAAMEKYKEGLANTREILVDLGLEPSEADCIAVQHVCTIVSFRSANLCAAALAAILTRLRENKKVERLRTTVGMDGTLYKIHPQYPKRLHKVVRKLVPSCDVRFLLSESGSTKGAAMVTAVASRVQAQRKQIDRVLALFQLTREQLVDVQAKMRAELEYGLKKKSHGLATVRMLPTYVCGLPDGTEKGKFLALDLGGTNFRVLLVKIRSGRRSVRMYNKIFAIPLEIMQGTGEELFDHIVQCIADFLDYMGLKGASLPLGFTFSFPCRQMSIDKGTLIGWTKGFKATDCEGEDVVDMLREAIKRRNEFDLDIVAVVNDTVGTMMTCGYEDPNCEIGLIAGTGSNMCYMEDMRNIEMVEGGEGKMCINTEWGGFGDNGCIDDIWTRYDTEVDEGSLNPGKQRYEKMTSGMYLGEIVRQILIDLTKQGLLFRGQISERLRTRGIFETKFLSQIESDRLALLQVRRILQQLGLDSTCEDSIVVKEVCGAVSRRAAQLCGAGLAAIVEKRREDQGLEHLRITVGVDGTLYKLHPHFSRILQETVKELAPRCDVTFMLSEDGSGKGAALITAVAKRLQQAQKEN

Vero = Vero cell cytotoxicity, cytotoxicity control for flavivirus capping enzyme inhibitors (AID 588742); assay type: functional; details: Chlorocebus sabaeus
Genome polyprotein = Genome polyprotein (dengue virus type 2, UniProt P29990); experiment: Dengue-2 NS5 methyltransferase inhibitors, primary screen, biochemical, confirmation dose response (AID 588689); assay type: functional
Keap1/Nrf2 = Keap1/Nrf2 (Homo sapiens, UniProt Q14145); experiment: Keap1-Nrf2 protein-protein interaction inhibitors, dose response, biochemical, fluorescence polarization, cherry-picked samples (AID 588683)
[1] = molecular target: T2, Replicative DNA helicase DnaB (Mycobacterium tuberculosis, UniProt P9WMR3); experiment: DnaB intein splicing inhibitors, dose response, biochemical, cell-free fluorescence (AID 449749); assay type: functional
T2 sequence (P9WMR3 whole entry): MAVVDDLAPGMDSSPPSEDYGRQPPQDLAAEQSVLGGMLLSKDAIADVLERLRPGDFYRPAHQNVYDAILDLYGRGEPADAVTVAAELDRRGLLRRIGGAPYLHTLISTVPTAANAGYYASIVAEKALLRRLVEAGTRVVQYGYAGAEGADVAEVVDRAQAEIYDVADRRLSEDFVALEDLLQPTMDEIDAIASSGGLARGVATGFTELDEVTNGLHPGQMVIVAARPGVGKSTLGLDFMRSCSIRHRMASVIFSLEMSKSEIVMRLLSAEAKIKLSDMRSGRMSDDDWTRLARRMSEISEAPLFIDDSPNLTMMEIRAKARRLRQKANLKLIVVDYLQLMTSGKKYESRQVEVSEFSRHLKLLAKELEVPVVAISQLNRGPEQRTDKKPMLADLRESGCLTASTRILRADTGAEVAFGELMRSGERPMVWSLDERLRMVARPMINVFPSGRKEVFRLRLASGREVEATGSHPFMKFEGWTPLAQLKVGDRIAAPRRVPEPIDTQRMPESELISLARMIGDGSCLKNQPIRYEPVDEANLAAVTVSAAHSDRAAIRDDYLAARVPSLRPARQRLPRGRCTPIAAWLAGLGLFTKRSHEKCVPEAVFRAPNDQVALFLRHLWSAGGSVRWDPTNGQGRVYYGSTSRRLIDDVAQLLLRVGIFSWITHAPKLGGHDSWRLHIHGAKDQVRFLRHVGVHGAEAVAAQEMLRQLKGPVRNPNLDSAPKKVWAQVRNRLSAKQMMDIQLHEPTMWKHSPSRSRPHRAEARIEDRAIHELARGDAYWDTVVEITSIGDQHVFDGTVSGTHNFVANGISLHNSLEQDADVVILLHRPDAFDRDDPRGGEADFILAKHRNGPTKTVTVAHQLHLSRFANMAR

Protein RecA = molecular target: T3, Protein RecA (Mycobacterium tuberculosis, UniProt P9WHJ3); experiment: Fluorescence Cell-Free Homogeneous Dose Retest to Identify Inhibitors of RecA-Intein Splicing Activity. [Related pubchem assays (depositor defined):AID2097, AID2223, AID489010, AID492950]; assay type: functional
T3 sequence (P9WHJ3 whole entry): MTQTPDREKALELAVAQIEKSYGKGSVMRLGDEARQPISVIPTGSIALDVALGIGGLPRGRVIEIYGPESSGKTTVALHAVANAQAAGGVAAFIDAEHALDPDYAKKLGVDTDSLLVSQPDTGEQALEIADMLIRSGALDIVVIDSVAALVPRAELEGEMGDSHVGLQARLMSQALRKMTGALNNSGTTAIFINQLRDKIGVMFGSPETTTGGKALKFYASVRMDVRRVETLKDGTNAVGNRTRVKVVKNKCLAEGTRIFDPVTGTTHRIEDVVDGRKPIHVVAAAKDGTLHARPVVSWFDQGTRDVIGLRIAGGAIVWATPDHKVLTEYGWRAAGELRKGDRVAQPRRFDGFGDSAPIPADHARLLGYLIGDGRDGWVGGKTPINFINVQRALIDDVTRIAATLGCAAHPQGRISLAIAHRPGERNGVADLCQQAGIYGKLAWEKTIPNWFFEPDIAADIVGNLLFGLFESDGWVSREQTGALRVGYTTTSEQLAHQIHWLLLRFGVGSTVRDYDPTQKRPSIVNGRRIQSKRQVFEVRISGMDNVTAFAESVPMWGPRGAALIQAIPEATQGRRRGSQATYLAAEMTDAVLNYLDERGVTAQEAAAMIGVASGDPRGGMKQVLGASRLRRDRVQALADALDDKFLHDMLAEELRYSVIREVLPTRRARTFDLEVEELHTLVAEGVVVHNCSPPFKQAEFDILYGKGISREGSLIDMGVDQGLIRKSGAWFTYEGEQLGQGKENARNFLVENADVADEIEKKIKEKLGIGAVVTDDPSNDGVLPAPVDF

Sequence of Keap1/Nrf2 (Q16236 whole entry): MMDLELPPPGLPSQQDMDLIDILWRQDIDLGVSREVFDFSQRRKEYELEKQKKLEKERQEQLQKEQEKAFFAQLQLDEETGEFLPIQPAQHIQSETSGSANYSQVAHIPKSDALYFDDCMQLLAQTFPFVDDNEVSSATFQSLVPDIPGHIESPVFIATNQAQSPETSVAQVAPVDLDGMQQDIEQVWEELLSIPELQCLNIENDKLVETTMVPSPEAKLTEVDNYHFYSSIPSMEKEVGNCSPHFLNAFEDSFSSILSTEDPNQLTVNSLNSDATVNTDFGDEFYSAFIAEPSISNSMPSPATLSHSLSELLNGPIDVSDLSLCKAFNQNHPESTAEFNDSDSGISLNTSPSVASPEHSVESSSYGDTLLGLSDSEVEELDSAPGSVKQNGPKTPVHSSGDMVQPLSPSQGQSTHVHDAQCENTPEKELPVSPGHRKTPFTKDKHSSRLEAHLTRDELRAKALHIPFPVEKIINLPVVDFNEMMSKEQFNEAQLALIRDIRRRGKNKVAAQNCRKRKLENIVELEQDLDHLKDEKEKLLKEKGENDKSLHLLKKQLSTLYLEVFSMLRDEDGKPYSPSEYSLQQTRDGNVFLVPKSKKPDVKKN
Sequence of Keap1/Nrf2 (Q14145 whole entry): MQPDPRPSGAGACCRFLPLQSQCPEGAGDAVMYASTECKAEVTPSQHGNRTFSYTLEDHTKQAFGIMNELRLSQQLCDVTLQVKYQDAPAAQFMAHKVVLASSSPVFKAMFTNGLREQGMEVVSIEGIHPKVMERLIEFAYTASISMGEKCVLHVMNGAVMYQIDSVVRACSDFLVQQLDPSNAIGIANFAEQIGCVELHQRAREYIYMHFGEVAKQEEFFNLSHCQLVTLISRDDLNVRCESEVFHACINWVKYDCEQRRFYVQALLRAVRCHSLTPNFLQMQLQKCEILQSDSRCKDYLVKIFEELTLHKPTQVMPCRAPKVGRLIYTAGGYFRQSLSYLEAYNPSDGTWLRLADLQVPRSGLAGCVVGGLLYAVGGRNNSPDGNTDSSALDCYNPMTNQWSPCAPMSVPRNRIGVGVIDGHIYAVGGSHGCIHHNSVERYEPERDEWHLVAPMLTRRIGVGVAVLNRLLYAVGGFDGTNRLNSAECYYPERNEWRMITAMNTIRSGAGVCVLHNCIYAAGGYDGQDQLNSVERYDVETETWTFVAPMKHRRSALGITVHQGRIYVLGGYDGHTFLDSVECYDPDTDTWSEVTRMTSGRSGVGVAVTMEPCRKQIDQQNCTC
Sequence of Hexokinase-1 (P19367 whole entry): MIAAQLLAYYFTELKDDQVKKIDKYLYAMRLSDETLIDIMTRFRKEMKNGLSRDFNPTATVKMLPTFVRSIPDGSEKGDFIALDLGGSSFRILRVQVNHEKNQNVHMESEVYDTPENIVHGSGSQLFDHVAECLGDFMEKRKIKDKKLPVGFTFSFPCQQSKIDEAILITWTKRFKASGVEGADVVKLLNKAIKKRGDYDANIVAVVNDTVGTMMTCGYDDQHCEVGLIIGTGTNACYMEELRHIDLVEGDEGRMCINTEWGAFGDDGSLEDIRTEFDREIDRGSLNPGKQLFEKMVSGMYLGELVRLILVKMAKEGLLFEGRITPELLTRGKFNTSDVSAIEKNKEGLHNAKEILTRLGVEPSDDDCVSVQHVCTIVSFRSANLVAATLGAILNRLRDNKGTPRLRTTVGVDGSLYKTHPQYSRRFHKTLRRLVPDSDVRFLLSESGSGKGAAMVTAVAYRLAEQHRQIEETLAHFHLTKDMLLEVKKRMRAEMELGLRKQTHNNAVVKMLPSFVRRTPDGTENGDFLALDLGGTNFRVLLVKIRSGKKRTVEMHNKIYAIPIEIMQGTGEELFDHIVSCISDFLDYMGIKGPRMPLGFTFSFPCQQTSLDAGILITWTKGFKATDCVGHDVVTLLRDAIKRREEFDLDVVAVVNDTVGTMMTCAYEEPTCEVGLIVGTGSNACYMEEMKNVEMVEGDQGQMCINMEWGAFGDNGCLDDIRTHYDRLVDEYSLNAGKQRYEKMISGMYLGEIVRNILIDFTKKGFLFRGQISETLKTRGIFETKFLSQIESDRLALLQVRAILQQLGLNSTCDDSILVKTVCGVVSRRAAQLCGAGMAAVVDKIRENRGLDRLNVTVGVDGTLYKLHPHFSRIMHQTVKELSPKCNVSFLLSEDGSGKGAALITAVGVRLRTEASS
Sequence of Genome polyprotein (P29990 2492-3391 limits assumed): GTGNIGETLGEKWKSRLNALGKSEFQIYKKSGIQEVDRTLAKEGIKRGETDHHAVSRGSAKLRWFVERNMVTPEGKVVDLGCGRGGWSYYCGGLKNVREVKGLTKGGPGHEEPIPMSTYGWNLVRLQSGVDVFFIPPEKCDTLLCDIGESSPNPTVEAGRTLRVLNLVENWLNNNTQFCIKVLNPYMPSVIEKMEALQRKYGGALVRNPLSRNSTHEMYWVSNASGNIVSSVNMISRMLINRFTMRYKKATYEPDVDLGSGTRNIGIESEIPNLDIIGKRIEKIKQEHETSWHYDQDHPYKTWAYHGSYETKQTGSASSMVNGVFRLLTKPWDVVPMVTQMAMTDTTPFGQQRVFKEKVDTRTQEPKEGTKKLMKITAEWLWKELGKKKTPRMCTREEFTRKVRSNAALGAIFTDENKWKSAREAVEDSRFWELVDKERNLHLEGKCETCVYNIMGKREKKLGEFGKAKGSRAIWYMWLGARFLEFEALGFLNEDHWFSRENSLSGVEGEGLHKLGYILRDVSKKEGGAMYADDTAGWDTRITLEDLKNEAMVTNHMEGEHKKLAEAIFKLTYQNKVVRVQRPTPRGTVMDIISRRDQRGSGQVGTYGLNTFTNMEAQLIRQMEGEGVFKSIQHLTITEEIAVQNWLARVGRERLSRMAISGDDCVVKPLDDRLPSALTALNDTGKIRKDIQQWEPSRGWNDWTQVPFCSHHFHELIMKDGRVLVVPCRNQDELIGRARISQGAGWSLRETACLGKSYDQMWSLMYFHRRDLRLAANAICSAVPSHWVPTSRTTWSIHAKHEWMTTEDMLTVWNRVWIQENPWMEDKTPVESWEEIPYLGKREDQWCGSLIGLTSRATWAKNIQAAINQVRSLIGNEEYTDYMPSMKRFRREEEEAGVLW

CCCC(C(=O)NNC(=O)c1cc(C)oc1C)c1ccccc1 (stereo not drawn)
AC50 (Escherichia coli): 31.7 µM (active)

Cc1ccccc1NC1c2ccccc2C(=O)N1c1ccccc1C (stereo not drawn)
IC50 (Hexokinase-1): > 80 µM (inactive)
IC50 (Hexokinase HKDC1): > 80 µM (inactive)

O=C1/C(=N\S(=O)(=O)c2ccc([N+](=O)[O-])cc2)C(Cl)=C(O)c2ccccc21
CC50 (Vero): 34.2 µM (active)
IC50 (Genome polyprotein): 76.9 µM (active)
AC50 (Keap1/Nrf2): > 52 µM (inactive)
AC50 [1]: 6.49 µM (active)
EC50 (Protein RecA): 1.26 µM (active)

— ChEMBL document CHEMBL1201862, “PubChem BioAssay data set” (2004)
